Kd and S35 data for 18 compounds are collected here from US9730937B2, “RAF kinase modulator compounds and methods of use thereof” (AMBIT BIOSCIENCES CORPORATION, priority 2008, dated 2017).

The structures appear in SMILES notation. Read-outs that look alike come from different tables or passages of the source.

For one test, the target named is RAF kinases (Homo sapiens (Human), UniProt P04049). To be noted: read-out: RAF1 Kd, class symbols.
For another test, the target named is wild type BRAF kinase (Homo sapiens (Human), UniProt P15056). The conditions noted are these: read-out: BRAF WT Kd, class symbols.
Test [1] deals with panel of 290 distinct kinases (321 in the larger panel), excluding mutant variants. The conditions noted are these: kinase selectivity score, class symbols.
Where [2] appears, read: value marked * (larger kinase panel).

Sequence of wild type BRAF kinase (P15056 whole entry): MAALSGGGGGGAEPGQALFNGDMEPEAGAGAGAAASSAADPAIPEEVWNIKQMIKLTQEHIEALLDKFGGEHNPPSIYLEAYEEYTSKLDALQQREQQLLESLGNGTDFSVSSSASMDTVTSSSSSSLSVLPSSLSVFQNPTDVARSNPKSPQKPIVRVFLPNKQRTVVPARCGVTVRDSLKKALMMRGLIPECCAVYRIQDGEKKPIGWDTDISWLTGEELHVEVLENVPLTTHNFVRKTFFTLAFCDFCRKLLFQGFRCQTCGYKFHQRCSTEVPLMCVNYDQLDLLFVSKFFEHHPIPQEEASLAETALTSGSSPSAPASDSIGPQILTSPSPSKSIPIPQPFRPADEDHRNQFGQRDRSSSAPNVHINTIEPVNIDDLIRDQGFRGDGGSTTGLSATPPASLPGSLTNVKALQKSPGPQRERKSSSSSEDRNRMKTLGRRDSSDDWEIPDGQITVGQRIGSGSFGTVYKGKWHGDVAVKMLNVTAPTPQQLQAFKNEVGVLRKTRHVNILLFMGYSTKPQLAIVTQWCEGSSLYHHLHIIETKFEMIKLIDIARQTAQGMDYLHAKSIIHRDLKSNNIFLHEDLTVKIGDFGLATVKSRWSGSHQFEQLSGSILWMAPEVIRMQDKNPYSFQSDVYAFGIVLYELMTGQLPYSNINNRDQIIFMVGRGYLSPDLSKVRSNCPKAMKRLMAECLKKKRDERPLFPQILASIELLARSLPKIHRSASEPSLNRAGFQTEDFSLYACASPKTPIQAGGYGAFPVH
Sequence of RAF kinases (P04049 whole entry): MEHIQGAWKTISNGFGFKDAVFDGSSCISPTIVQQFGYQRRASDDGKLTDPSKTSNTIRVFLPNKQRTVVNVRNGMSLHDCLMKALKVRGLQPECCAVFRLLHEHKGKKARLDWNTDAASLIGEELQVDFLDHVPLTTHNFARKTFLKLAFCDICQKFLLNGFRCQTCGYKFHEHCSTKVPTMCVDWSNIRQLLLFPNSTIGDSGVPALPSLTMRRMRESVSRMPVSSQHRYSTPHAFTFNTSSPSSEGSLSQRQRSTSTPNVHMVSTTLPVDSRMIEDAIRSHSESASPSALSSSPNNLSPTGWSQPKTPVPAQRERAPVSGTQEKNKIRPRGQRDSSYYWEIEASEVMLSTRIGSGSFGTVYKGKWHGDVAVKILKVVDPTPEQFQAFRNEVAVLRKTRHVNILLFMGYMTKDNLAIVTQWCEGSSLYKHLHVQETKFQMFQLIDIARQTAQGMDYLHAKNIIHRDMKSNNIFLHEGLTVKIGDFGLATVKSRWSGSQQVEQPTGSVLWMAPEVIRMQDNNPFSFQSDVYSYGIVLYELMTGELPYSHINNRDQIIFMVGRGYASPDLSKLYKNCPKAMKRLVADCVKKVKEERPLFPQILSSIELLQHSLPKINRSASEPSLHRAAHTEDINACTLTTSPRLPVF
Experimental for RAF kinases: The liganded beads were blocked with excess biotin and washed with blocking buffer (SeaBlock (Pierce), 1% BSA, 0.05% Tween 20, 1 mM DTT) to remove unbound ligand and to reduce non-specific binding. […] Test compounds were prepared as 100× stocks in DMSO and rapidly diluted into the aqueous environment. DMSO was added to control assays lacking a test compound. Primary screen interactions were performed in polypropylene 384-well plates in a final volume of 34 μL, while Kd determinations were performed in polystyrene 96-well plates in a final volume of 135 μL. […] The kinase concentration in the eluates was measured by quantitative PCR. Each kinase was tested individually against each compound. KdS were determined using eleven serial threefold dilutions. A selectivity score, which is a quantitative measure of selectivity of a compound against a panel of enzymes, may be calculated for a compound by dividing the number of enzymes for which a compound meets a set criteria, (for example, a binding constant of 100 nM or less), by the total number of enzymes tested. […] (Note, for those compounds tested in a larger kinase panel, as indicated by an asterisk (*) next to the S35 score, the divisor is 321 (i.e. the larger panel contains 321 distinct kinases, excluding mutant variants.)).

The term Kd denotes the free concentration of one partner at which half of the binding sites on the other are occupied at equilibrium, for simple one-to-one binding. As for `COc1cc2ncnc(Oc3cccc(NC(=O)Nc4cc(C(C)(C)C)on4)c3)c2cc1O[C@H]1CCN(C(=O)OC(C)(C)C)C1` [Ex 108, (S)-tert-butyl 3-(4-(3-(3-(5-tert-butylisoxazole-3-yl)ureido)phenoxy)-7-methoxyquinazolin-6-yloxy)pyrrolidine-1-carboxylate], the Kd at RAF kinases and at wild type BRAF kinase was more than 1 µM throughout. The S35 result in test [1] (290 distinct kinases) is listed as “C (0.20 < C ≦ 0.40)”.
For the compound `COCC(C)(C)c1cc(NC(=O)Nc2cccc(Oc3ncnc4cc(OC)c(OC)cc34)c2)no1` [Ex 130, 1-(3-(6,7-dimethoxyquinazolin-4-yloxy)phenyl)-3-(5-(1-methoxy-2-methylpropan-2-yl)isoxazol-3-yl)urea], the Kd on RAF kinases and on wild type BRAF kinase was more than 1 µM throughout. In test [1] (290 distinct kinases), the S35 entry is given as “C (0.20 < C ≦ 0.40)”.
As to `COCCOc1cc(NC(=O)Nc2cccc(Sc3ncnc4cc(OC)c(OC)cc34)c2)ccc1C(F)(F)F` [Ex 148, 1-(3-(6,7-dimethoxyquinazolin-4-ylthio)phenyl)-3-(3-(2-methoxyethoxy)-4-(trifluoromethyl)phenyl)urea], the Kd on RAF kinases and at wild type BRAF kinase was more than 1 µM each time. Besides, the S35 entry in test [1] (setting [2]) was “B* (0.10 < B ≦ 0.20)”.
On to `COc1cc2ncnc(Oc3cccc(NC(=O)Nc4cc(C(=O)N5CCOCC5)cc(C(F)(F)F)c4)c3)c2cc1OC` [Ex 149, 1-(3-(6,7-dimethoxyquinazolin-4-yloxy)phenyl)-3-(3-(morpholine-4-carbonyl)-5-(trifluoromethyl)phenyl)urea], for which the Kd on RAF kinases and on wild type BRAF kinase was more than 1 µM throughout. Further, the S35 result in test [1] (setting [2]) is reported as “B* (0.10 < B ≦ 0.20)”.
On to `COc1cc2ncnc(Oc3cccc(NC(=O)Nc4cc(C(C)(C)C)nn4-c4ccccc4)c3)c2cc1OC` [Ex 153, 1-(3-tert-butyl-1-phenyl-1H-pyrazol-5-yl)-3-(3-(6,7-dimethoxyquinazolin-4-yloxy)phenyl)urea], for which the Kd on RAF kinases and at wild type BRAF kinase was more than 1 µM throughout. In addition, the S35 result in test [1] (setting [2]) is given as “D* (D > 0.40)”.
As for `COc1cc2ncnc(Oc3cccc(NC(=O)Nc4cc(C5(C(F)(F)F)CCC5)no4)c3)c2cc1OC` [Ex 155, 1-(3-(6,7-dimethoxyquinazolin-4-yloxy)phenyl)-3-(3-(1-(trifluoromethyl)cyclobutyl)isoxazol-5-yl)urea], the Kd at RAF kinases and at wild type BRAF kinase was more than 1 µM each time. The S35 entry in test [1] (setting [2]) is reported as “C* (0.20 < C ≦ 0.40)”.
Consider `COc1cc2ncnc(Sc3cccc(NC(=O)Nc4cc(C5(C(F)(F)F)CCC5)no4)c3)c2cc1OC` [Ex 156, 1-(3-(6,7-dimethoxyquinazolin-4-ylthio)phenyl)-3-(3-(1-(trifluoromethyl)cyclobutyl)isoxazol-5-yl)urea], for which the Kd at RAF kinases and at wild type BRAF kinase was more than 1 µM in each case. In addition, in test [1] (setting [2]), the S35 result was “C* (0.20 < C ≦ 0.40)”.
As for `COc1cc2ncnc(Oc3cccc(NC(=O)Nc4cc(C(F)(F)F)nn4-c4ccccc4)c3)c2cc1OC` [Ex 161, 1-[3-(6,7-dimethoxyquinazolin-4-yloxy)phenyl]-3-[1-phenyl-3-(trifluoromethyl)-1H-pyrazol-5-yl]urea], the Kd on RAF kinases and at wild type BRAF kinase was more than 1 µM in each case. The S35 entry in test [1] (setting [2]) is listed as “C* (0.20 < C ≦ 0.40)”.
`CCOC(=O)Cn1nc(C(C)(C)C)cc1NC(=O)Nc1cccc(Oc2ncnc3cc(OC)c(OC)cc23)c1` [Ex 166, ethyl 2-(3-tert-butyl-5-{3-[3-(6,7-dimethoxyquinazolin-4-yloxy)phenyl]ureido}-1H-pyrazol-1-yl)acetate]: the Kd on RAF kinases and on wild type BRAF kinase was more than 1 µM each time. For the same compound, in test [1] (setting [2]), the S35 result was “C* (0.20 < C ≦ 0.40)”.
Take `CCOC(C)(C)c1cc(NC(=O)Nc2cccc(Oc3ncnc4cc(OC)c(OC)cc34)c2)n(-c2ccccc2)n1` [Ex 168, 1-[3-(6,7-dimethoxyquinazolin-4-yloxy)phenyl]-3-[3-(2-ethoxypropan-2-yl)-1-phenyl-1H-pyrazol-5-yl]urea]: the Kd at RAF kinases and at wild type BRAF kinase was more than 1 µM throughout. Besides, in test [1] (setting [2]), the S35 result is “C* (0.20 < C ≦ 0.40)”.
On to `COc1cc2ncnc(Oc3cccc(NC(=O)Nc4cc(C(F)(F)F)nn4-c4ccc(F)cc4)c3)c2cc1OC` [Ex 171, 1-[3-(6,7-dimethoxyquinazolin-4-yloxy)phenyl]-3-[1-(4-fluorophenyl)-3-(trifluoromethyl)-1H-pyrazol-5-yl]urea], for which the Kd at RAF kinases and at wild type BRAF kinase was more than 1 µM throughout. Also, the S35 result in test [1] (setting [2]) is listed as “C* (0.20 < C ≦ 0.40)”.
Turning to `COc1cc2ncnc(Oc3cccc(NC(=O)Nc4cc(C(F)(F)F)nn4-c4ccc(C)cc4)c3)c2cc1OC` [Ex 172, 1-[3-(6,7-dimethoxyquinazolin-4-yloxy)phenyl]-3-[1-p-tolyl-3-(trifluoromethyl)-1H-pyrazol-5-yl]urea], the Kd at RAF kinases and on wild type BRAF kinase was more than 1 µM each time. Also, in test [1] (setting [2]), the S35 entry is recorded as “C* (0.20 < C ≦ 0.40)”.
As for `COc1cc2ncnc(Sc3cccc(NC(=O)Nc4ccc(Cl)c(C(F)(F)F)c4)c3)c2cc1OC` [Ex 186, 1-(4-chloro-3-(trifluoromethyl)phenyl)-3-(3-(6,7-dimethoxyquinazolin-4-ylthio)phenyl)urea], the Kd on RAF kinases and at wild type BRAF kinase was more than 1 µM throughout. In test [1] (setting [2]), the S35 result is “B* (0.10 < B ≦ 0.20)”.
For the compound `COc1cc2ncnc(Sc3cccc(NC(=O)Nc4ccc(C(F)(F)F)c(OC)c4)c3)c2cc1OC` [Ex 190, 1-(3-(6,7-dimethoxyquinazolin-4-ylthio)phenyl)-3-(3-methoxy-4-(trifluoromethyl)phenyl)urea], the Kd at RAF kinases and at wild type BRAF kinase was more than 1 µM each time. The S35 entry in test [1] (setting [2]) is recorded as “B* (0.10 < B ≦ 0.20)”.
In the case of `COc1cc2ncnc(Sc3cccc(NC(=O)Nc4cc(C(F)(F)F)nn4-c4ccccc4)c3)c2cc1OC` [Ex 192, 1-[3-(6,7-dimethoxyquinazolin-4-ylthio)phenyl]-3-[1-phenyl-3-(trifluoromethyl)-1H-pyrazol-5-yl]urea], the Kd on RAF kinases and on wild type BRAF kinase was more than 1 µM in each case. For the same compound, the S35 result in test [1] (setting [2]) is listed as “C* (0.20 < C ≦ 0.40)”.
Regarding `CCOC(=O)Cn1nc(C(C)(C)C)cc1NC(=O)Nc1cccc(Sc2ncnc3cc(OC)c(OC)cc23)c1` [Ex 195, ethyl 2-(3-tert-butyl-5-{3-[3-(6,7-dimethoxyquinazolin-4-ylthio)phenyl]ureido}-1H-pyrazol-1-yl)acetate], the Kd at RAF kinases and at wild type BRAF kinase was more than 1 µM in each case. Moreover, the S35 entry in test [1] (setting [2]) is reported as “C* (0.20 < C ≦ 0.40)”.
On to `COc1cc2ncnc(Sc3cccc(NC(=O)Nc4cc(C(F)(F)F)nn4-c4ccc(F)cc4)c3)c2cc1OC` [Ex 198, 1-[3-(6,7-dimethoxyquinazolin-4-ylthio)phenyl]-3-[1-(4-fluorophenyl)-3-(trifluoromethyl)-1H-pyrazol-5-yl]urea], for which the Kd on RAF kinases and on wild type BRAF kinase was more than 1 µM each time. The S35 entry in test [1] (setting [2]) is given as “C* (0.20 < C ≦ 0.40)”.
`COCCOc1cc2ncnc(Oc3cccc(NC(=O)Nc4cc(C(=O)N5CCOCC5)cc(C(F)(F)F)c4)c3)c2cc1OC` [Ex 205, 1-(3-(6-methoxy-7-(2-methoxyethoxy)quinazolin-4-yloxy)phenyl)-3-(3-(morpholine-4-carbonyl)-5-(trifluoromethyl)phenyl)urea]: the Kd at RAF kinases and at wild type BRAF kinase was more than 1 µM each time. In addition, in test [1] (setting [2]), the S35 result is on record as “C* (0.20 < C ≦ 0.40)”.
